pEC50: −log10 of the molar value. Like-named read-outs stand apart in the source and are kept apart here. Numbered stars: 1 amine (or outer) side, 2 acyl side, 3 side chain; on linkers, the order of the positions; unused ones are H or OH. Square brackets hold non-standard residues; d marks the D form. Side chains are listed from the residue outwards. Peptide text beside a SMILES is read from it. * marks the point of attachment. γGlu = O=C(O)[C@H](CCC(=O)[*:2])N[*:1]; Stearoyl = CCCCCCCCCCCCCCCCCC(=O)*; AEEA = NCCOCCOCC(=O)O; Aib = CC(C)(N)C(=O)O

The record followed here is patent US10131702B2, “Glucagon-GLP-1-GIP triple agonist compounds” (priority 2013, dated 2018).

Common to all, as to type: cell-based
One test concerns the target T1, human GIP R (Homo sapiens, UniProt P48546).
T1 construct: expressed in transfected cells
T1 sequence (P48546 22-466): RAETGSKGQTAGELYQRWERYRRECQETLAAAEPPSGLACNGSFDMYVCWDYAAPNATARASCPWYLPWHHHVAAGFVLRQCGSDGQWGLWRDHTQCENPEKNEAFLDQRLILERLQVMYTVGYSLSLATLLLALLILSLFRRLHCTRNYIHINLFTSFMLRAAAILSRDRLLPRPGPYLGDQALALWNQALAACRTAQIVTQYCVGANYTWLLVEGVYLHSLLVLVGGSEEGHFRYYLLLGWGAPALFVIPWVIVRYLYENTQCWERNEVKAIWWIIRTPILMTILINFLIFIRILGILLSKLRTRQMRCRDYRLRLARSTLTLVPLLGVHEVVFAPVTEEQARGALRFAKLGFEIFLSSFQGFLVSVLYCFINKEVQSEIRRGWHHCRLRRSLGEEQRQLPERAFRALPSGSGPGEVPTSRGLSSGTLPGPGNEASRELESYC
The experiment in a line: cAMP induction in HEK293 cells expressing human GIP R (AlphaScreen cAMP kit). On the technique in general: Bead proximity is the source of the signal in Alpha formats.

The next test addresses T2, human GCG R (Homo sapiens, UniProt P47871).
T2 construct: expressed in transfected cells
Description: cAMP induction in HEK293 cells expressing human GCG R (AlphaScreen cAMP kit). The following applies: for EC50: average EC50, cAMP, HEK293 cells expressing human GCG R, read-out: GCG R (EC50 in nM).

The next test has as its target T3, human GLP-1 R (Homo sapiens, UniProt P43220).
T3 construct: expressed in transfected cells
Description: cAMP induction in HEK293 cells expressing human GLP-1 R (AlphaScreen cAMP kit). Conditions: average EC50, cAMP, HEK293 cells expressing human GLP-1 R, read-out: GLP1 R (EC50 in nM).

The mark [1] stands for this setting: Table 2b (most comprehensive data), average EC50, cAMP, read-out: GIP R (EC50 in nM).
The mark [2] stands for this setting: Table 2b (most comprehensive data).
Where [3] appears, read: GIP R (EC50 in nM), Table 2, average EC50, cAMP.
Setting [4] is: Table 2, average EC50, cAMP, read-out: GIP R (EC50 in nM).

T3 sequence (P43220 24-463): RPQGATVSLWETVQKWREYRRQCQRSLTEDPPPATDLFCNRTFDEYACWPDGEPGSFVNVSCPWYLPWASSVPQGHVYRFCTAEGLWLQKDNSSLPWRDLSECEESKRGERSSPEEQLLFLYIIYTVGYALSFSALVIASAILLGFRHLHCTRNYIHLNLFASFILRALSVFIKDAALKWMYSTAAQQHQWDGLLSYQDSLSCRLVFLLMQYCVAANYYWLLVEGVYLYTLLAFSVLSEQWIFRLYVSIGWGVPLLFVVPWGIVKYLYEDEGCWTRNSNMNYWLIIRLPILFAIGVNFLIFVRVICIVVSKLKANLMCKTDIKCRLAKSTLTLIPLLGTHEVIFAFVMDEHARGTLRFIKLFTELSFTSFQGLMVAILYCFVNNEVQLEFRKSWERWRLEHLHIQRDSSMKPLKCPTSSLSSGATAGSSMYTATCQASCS
T2 sequence (P47871 26-477): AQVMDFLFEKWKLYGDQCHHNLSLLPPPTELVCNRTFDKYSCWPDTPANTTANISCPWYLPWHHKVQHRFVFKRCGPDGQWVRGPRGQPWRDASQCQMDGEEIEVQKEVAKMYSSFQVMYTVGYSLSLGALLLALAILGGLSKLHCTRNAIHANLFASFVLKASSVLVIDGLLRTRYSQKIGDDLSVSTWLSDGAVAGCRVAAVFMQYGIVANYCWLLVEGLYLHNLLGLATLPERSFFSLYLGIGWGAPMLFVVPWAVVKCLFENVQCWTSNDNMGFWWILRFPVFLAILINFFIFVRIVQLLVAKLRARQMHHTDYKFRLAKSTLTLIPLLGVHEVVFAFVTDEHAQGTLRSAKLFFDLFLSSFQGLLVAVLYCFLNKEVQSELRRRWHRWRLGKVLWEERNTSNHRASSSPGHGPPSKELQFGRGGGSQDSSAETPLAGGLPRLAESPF

One may read the EC50 as the concentration needed to bring the measured effect to its halfway point. As for `CCCCCCCCCCCCCCCCCC(=O)N[C@@H](CCC(=O)NCCOCCOCC(=O)NCCOCCOCC(=O)NCCCC[C@H](NC(=O)[C@H](CCCCN)NC(=O)[C@H](CCC(=O)O)NC(=O)[C@H](CC(C)C)NC(=O)[C@H](Cc1ccc(O)cc1)NC(=O)[C@@H](NC(=O)[C@H](CO)NC(=O)[C@H](Cc1ccc(O)cc1)NC(=O)[C@H](CC(=O)O)NC(=O)[C@H](CO)NC(=O)[C@@H](NC(=O)[C@H](Cc1ccccc1)NC(=O)[C@@H](NC(=O)CNC(=O)[C@H](CCC(N)=O)NC(=O)C(C)(C)NC(=O)[C@@H](N)Cc1ccc(O)cc1)[C@@H](C)O)[C@@H](C)O)[C@@H](C)CC)C(=O)N[C@@H](C)C(=O)N[C@@H](C)C(=O)N[C@@H](CCCCN)C(=O)N[C@@H](CCC(=O)O)C(=O)N[C@@H](Cc1ccccc1)C(=O)N[C@H](C(=O)N[C@@H](CCC(=O)O)C(=O)N[C@@H](Cc1c[nH]c2ccccc12)C(=O)N[C@@H](CC(C)C)C(=O)N[C@@H](CC(C)C)C(=O)N[C@@H](CO)C(=O)N[C@@H](C)C(=O)NCC(=O)N1CCC[C@H]1C(=O)N[C@@H](CO)C(=O)N[C@@H](CO)C(=O)NCC(=O)N[C@@H](C)C(=O)N1CCC[C@H]1C(=O)N1CCC[C@H]1C(=O)N1CCC[C@H]1C(=O)N[C@@H](CO)C(N)=O)C(C)C)C(=O)O` [Compound 37] (H-Y[Aib]QGTFTSDYSIYLEKK([AEEA-AEEA-γGlu-Stearoyl])AAKEFVEWLLSAGPSSGAPPPS-NH2), the EC50 stood at 0.018 nM at human GIP R (setting [1]) and 0.014 nM at human GCG R (setting [2]).
The pEC50 is the EC50 on a negative log10 scale, so that one unit is a factor of ten. Read a low pEC50 as a high EC50. As for `CC[C@H](C)[C@H](NC(=O)[C@H](CO)NC(=O)[C@H](Cc1ccc(O)cc1)NC(=O)[C@H](CC(=O)O)NC(=O)[C@H](CO)NC(=O)[C@@H](NC(=O)[C@H](Cc1ccccc1)NC(=O)[C@@H](NC(=O)CNC(=O)[C@H](CCC(N)=O)NC(=O)C(C)(C)NC(=O)[C@@H](N)Cc1ccc(O)cc1)[C@@H](C)O)[C@@H](C)O)C(=O)N[C@@H](Cc1ccc(O)cc1)C(=O)N[C@@H](CC(C)C)C(=O)N[C@@H](CC(=O)O)C(=O)N[C@@H](CO)C(=O)N[C@@H](CCCCN)C(=O)N[C@@H](C)C(=O)N[C@@H](C)C(=O)N[C@@H](Cc1c[nH]cn1)C(=O)N[C@@H](CC(=O)O)C(=O)N[C@@H](Cc1ccccc1)C(=O)N[C@H](C(=O)N[C@@H](CC(N)=O)C(=O)N[C@@H](Cc1c[nH]c2ccccc12)C(=O)N[C@@H](CC(C)C)C(=O)N[C@@H](CC(C)C)C(=O)N[C@@H](CO)C(=O)N[C@@H](C)C(N)=O)C(C)C` [Compound 11] (HELM PEPTIDE1{Y.[Aib].Q.G.T.F.T.S.D.Y.S.I.Y.L.D.S.K.A.A.H.D.F.V.N.W.L.L.S.A.[am]}$$$$V2.0), the figures for the EC50 at human GIP R (setting [3]), on human GLP-1 R (Table 2) and on human GLP-1 R (setting [2]) were 0.28 nM, 0.02 nM and 0.11 nM, respectively. Moreover, at human GCG R, the pEC50 was 9.96.
For `CC[C@H](C)[C@H](NC(=O)[C@H](CO)NC(=O)[C@H](Cc1ccc(O)cc1)NC(=O)[C@H](CC(=O)O)NC(=O)[C@H](CO)NC(=O)[C@@H](NC(=O)[C@H](Cc1ccccc1)NC(=O)[C@@H](NC(=O)CNC(=O)[C@H](CCC(N)=O)NC(=O)C(C)(C)NC(=O)[C@@H](N)Cc1ccc(O)cc1)[C@@H](C)O)[C@@H](C)O)C(=O)N[C@@H](Cc1ccc(O)cc1)C(=O)N[C@@H](CC(C)C)C(=O)N[C@@H](CCC(=O)O)C(=O)N[C@@H](CCCCN)C(=O)N[C@@H](CCCCN)C(=O)N[C@@H](C)C(=O)N[C@@H](C)C(=O)N[C@@H](CCCCN)C(=O)N[C@@H](CCC(=O)O)C(=O)N[C@@H](Cc1ccccc1)C(=O)N[C@H](C(=O)N[C@@H](CCC(=O)O)C(=O)N[C@@H](Cc1c[nH]c2ccccc12)C(=O)N[C@@H](CC(C)C)C(=O)N[C@@H](CC(C)C)C(=O)N[C@@H](CO)C(=O)N[C@@H](C)C(N)=O)C(C)C` [Compound 20] (HELM PEPTIDE1{Y.[Aib].Q.G.T.F.T.S.D.Y.S.I.Y.L.E.K.K.A.A.K.E.F.V.E.W.L.L.S.A.[am]}$$$$V2.0), the concentration giving a half-maximal response (EC50) at human GIP R (setting [3]) amounted to 0.047 nM; on human GIP R (GIP R (EC50 in nM), Table 2b (most comprehensive data), average EC50, cAMP), 0.009 nM; at human GLP-1 R (Table 2), 0.0094 nM. The same molecule showed a negative-log EC50 (pEC50) on human GCG R of 10.24.
With `CC[C@H](C)[C@H](NC(=O)[C@H](CO)NC(=O)[C@H](Cc1ccc(O)cc1)NC(=O)[C@H](CC(=O)O)NC(=O)[C@H](CO)NC(=O)[C@@H](NC(=O)[C@H](Cc1ccccc1)NC(=O)[C@@H](NC(=O)CNC(=O)[C@H](CCC(N)=O)NC(=O)C(C)(C)NC(=O)[C@@H](N)Cc1ccc(O)cc1)[C@@H](C)O)[C@@H](C)O)C(=O)N[C@@H](Cc1ccc(O)cc1)C(=O)N[C@@H](CC(C)C)C(=O)N[C@@H](CC(=O)O)C(=O)N[C@@H](CO)C(=O)N[C@@H](CCCCN)C(=O)N[C@@H](C)C(=O)N[C@@H](C)C(=O)N[C@@H](Cc1c[nH]cn1)C(=O)N[C@@H](CC(=O)O)C(=O)N[C@@H](Cc1ccccc1)C(=O)N[C@H](C(=O)N[C@@H](CCC(=O)O)C(=O)N[C@@H](Cc1c[nH]c2ccccc12)C(=O)N[C@@H](CC(C)C)C(=O)N[C@@H](CC(C)C)C(=O)N[C@@H](CO)C(=O)N[C@@H](C)C(=O)NCC(=O)N1CCC[C@H]1C(=O)N[C@@H](CO)C(=O)N[C@@H](CO)C(=O)NCC(=O)N[C@@H](C)C(=O)N1CCC[C@H]1C(=O)N1CCC[C@H]1C(=O)N1CCC[C@H]1C(=O)N[C@@H](CO)C(N)=O)C(C)C` [Compound 13] (HELM PEPTIDE1{Y.[Aib].Q.G.T.F.T.S.D.Y.S.I.Y.L.D.S.K.A.A.H.D.F.V.E.W.L.L.S.A.G.P.S.S.G.A.P.P.P.S.[am]}$$$$V2.0), the EC50 came to 0.083 nM at human GIP R (setting [4]), 0.01 nM at human GIP R (setting [1]), 0.0099 nM on human GLP-1 R (Table 2) and 0.24 nM at human GCG R (Table 2).
As for `CCCCCCCCCCCCCCCC(=O)N[C@@H](CCC(=O)NCCCC[C@H](NC(=O)[C@H](CO)NC(=O)[C@H](Cc1ccc(O)cc1)NC(=O)[C@H](CC(=O)O)NC(=O)[C@H](CO)NC(=O)[C@@H](NC(=O)[C@H](Cc1ccccc1)NC(=O)[C@@H](NC(=O)CNC(=O)[C@H](CCC(N)=O)NC(=O)C(C)(C)NC(=O)[C@@H](N)Cc1ccc(O)cc1)[C@@H](C)O)[C@@H](C)O)C(=O)N[C@@H](Cc1ccc(O)cc1)C(=O)N[C@@H](CC(C)C)C(=O)N[C@@H](CCC(=O)O)C(=O)N[C@@H](CCCCN)C(=O)N[C@@H](CCCCN)C(=O)N[C@@H](C)C(=O)N[C@@H](C)C(=O)N[C@@H](CCCCN)C(=O)N[C@@H](CCC(=O)O)C(=O)N[C@@H](Cc1ccccc1)C(=O)N[C@H](C(=O)N[C@@H](CCC(=O)O)C(=O)N[C@@H](Cc1c[nH]c2ccccc12)C(=O)N[C@@H](CC(C)C)C(=O)N[C@@H](CC(C)C)C(=O)N[C@@H](CO)C(=O)N[C@@H](C)C(N)=O)C(C)C)C(=O)O` [Compound 25] (HELM PEPTIDE1{Y.[Aib].Q.G.T.F.T.S.D.Y.S.K.Y.L.E.K.K.A.A.K.E.F.V.E.W.L.L.S.A.[am]}|PEPTIDE2{[CCCCCCCCCCCCCCCC(=O)[*:2]].[gGlu]}$PEPTIDE1,PEPTIDE2,12:R3-2:R2$$$V2.0), the concentration for a half-maximal effect (EC50) at human GIP R (setting [4]) was 0.25 nM; on human GIP R (setting [1]), 0.25 nM; at human GLP-1 R (Table 2) it was 0.28 nM; on human GLP-1 R (setting [2]), 0.28 nM; on human GCG R (Table 2), 0.3 nM.
Consider `CCCCCCCCCCCCCCCCCC(=O)N[C@@H](CCC(=O)NCCOCCOCC(=O)NCCOCCOCC(=O)NCCCC[C@H](NC(=O)[C@H](CCCCN)NC(=O)[C@H](CCC(=O)O)NC(=O)[C@H](CC(C)C)NC(=O)[C@H](C)NC(=O)[C@@H](NC(=O)[C@H](CO)NC(=O)[C@H](CC(C)C)NC(=O)[C@H](CC(=O)O)NC(=O)[C@H](CO)NC(=O)[C@@H](NC(=O)[C@H](Cc1ccccc1)NC(=O)[C@@H](NC(=O)CNC(=O)[C@H](CCC(N)=O)NC(=O)C(C)(C)NC(=O)[C@@H](N)Cc1ccc(O)cc1)[C@@H](C)O)[C@@H](C)O)[C@@H](C)CC)C(=O)N[C@@H](C)C(=O)N[C@@H](CCC(N)=O)C(=O)N[C@@H](CCCNC(=N)N)C(=O)N[C@@H](C)C(=O)N[C@@H](Cc1ccccc1)C(=O)N[C@H](C(=O)N[C@@H](CCC(=O)O)C(=O)N[C@@H](Cc1c[nH]c2ccccc12)C(=O)N[C@@H](CC(C)C)C(=O)N[C@@H](CC(C)C)C(=O)N[C@@H](C)C(=O)N[C@@H](CCC(N)=O)C(=O)N[C@@H](CCCCN)C(N)=O)C(C)C)C(=O)O` [Compound 48] (H-Y[Aib]QGTFTSDLSIALEKK([AEEA-AEEA-γGlu-Stearoyl])AQRAFVEWLLAQK-NH2), for which the EC50 on human GIP R (setting [1]) is 0.013 nM; on human GLP-1 R (setting [2]) it was 0.013 nM; on human GCG R (setting [2]), 0.19 nM.
